According to patent US8362015B2, “Aminoacyl prodrug derivatives and medicaments for treatment of thromboembolic disorders” (Bayer Intellectual Property GmbH, priority 2006, dated 2013):
Counter-ions that a name gives are not always drawn.

Tests used:
[1] = Stability in buffer at various pH values (HPLC, unchanged test substance); type: physicochemical; details: acetonitrile/buffer 1:1
Method: 0.3 mg of the test substance is weighed into a 2 ml HPLC vial and 0.5 ml of acetonitrile is added. The substance is dissolved by putting the sample vessel in an ultrasonic bath for about 10 seconds. Then 0.5 ml of the respective buffer solution is added, and the sample is again treated in the ultrasonic bath.
Buffer solutions employed: • pH 4.0: 1 liter of Millipore water is adjusted to pH 4.0 with 1 N hydrochloric acid; • pH 7.4: 90 g of sodium chloride, 13.61 g of potassium dihydrogen phosphate and 83.35 g of 1 M sodium hydroxide solution are made up to 1 liter with Millipore water and then diluted 1:10.
5 μl portions of the test solution are analysed by HPLC for their content of unchanged test substance every hour over a period of 24 hours at 25° C. The percentage areas of the appropriate peaks are used for quantification.
Agilent 1100 with DAD (G1314A), binary pump (G1312A), autosampler (G1329A), column oven (G1316A), thermostat (G1330A); column: Kromasil 100 C18, 60 mm×2.1 mm, 3.5 μm; column temperature: 30° C.; eluent A: water+5 ml of perchloric acid/liter, eluent B: acetonitrile; gradient: 0-1.0 min 98% A, 2% B→1.0-9.0 min 2% A, 98% B; 9.0-13.0 min 2% A, 98% B; 13.0-13.5 min 98% A, 2% B; 13.5-15.0 98% A, 2% B; flow rate: 0.75 ml/min; UV detection: 210 nm.
The ratios of the peak areas (F) at the respective time points in relation to the peak areas at the starting time are shown in Table 2 for representative exemplary embodiments: […]

[2] = Determination of the solubility in dilute hydrochloric acid (pH 4); type: physicochemical; details: aqueous buffer, thermodynamic from solid, room temperature, shaken 24 h
Method: The test substance is suspended in water or dilute hydrochloric acid (pH 4). This suspension is shaken at room temperature for 24 h. After ultracentrifugation at 224 000 g for 30 min, the supernatant is diluted with DMSO and analysed by HPLC. A two-point calibration plot of the test compound in DMSO is used for quantification.
Agilent 1100 with DAD (G1315A), quat. pump (G1311A), autosampler CTC HTS PAL, degasser (G1322A) and column thermostat (G1316A); column: Kromasil C18, 60×2.1 mm, 3.5 μm; temperature: 30° C.; eluent A: water+5 ml of perchloric acid/liter, eluent B: acetonitrile; flow rate: 0.7 ml/min; gradient: 0-0.5 min 98% A, 2% B; ramp 0.5-4.5 min 10% A, 90% B; 4.5-6 min 10% A, 90% B; ramp 6.5-6.7 min 98% A, 2% B; 6.7-7.5 min 98% A, 2% B.

Structure (SMILES)	% test substance after 4 h [F(t = 4 h) × 100/F(t = 0 h)] ([1]; buffer pH 4, 25° C.) [%]	% test substance after 24 h [F(t = 24 h) × 100/F(t = 0 h)] ([1]; buffer pH 4, 25° C.) [%]	% test substance after 4 h [F(t = 4 h) × 100/F(t = 0 h)] ([1]; buffer pH 7.4, 25° C.) [%]	% test substance after 24 h [F(t = 24 h) × 100/F(t = 0 h)] ([1]; buffer pH 7.4, 25° C.) [%]	solubility at 24 h [2] [µg/mL]
CC(C)[C@H](N)C(=O)OCCCCC(=O)N(C[C@H]1CN(c2ccc(N3CCOCC3=O)cc2)C(=O)O1)C(=O)c1ccc(Cl)s1 [Example 3, hydrochloride]	100	101	100	100	> 3500
NCCCC[C@H](N)C(=O)SCCCCC(=O)N(C[C@H]1CN(c2ccc(N3CCOCC3=O)cc2)C(=O)O1)C(=O)c1ccc(Cl)s1 [Example 6, S-(5-{[(5-Chloro-2-thienyl)carbonyl]({(5S)-2-oxo-3-[4-(3-oxomorpholin-4-yl)phenyl]-1,3-oxazolidin-5-yl}methyl)amino}-5-oxopentyl)(2S)-2,6-diaminohexanethioate dihydrochloride]	99	99	90	53	–
CC(C)[C@H](N)C(=O)SCCCC(=O)N(C[C@H]1CN(c2ccc(N3CCOCC3=O)cc2)C(=O)O1)C(=O)c1ccc(Cl)s1 [Example 8, S-(5-{[(5-Chloro-2-thienyl)carbonyl]({(5S)-2-oxo-3-[4-(3-oxomorpholin-4-yl)phenyl]-1,3-oxazolidin-5-yl}methyl)amino}-4-oxobutyl)(2S)-2-amino-3-methylbutanethioate hydrochloride]	100	100	86	48	–
O=C(NCCCCC(=O)N(C[C@H]1CN(c2ccc(N3CCOCC3=O)cc2)C(=O)O1)C(=O)c1ccc(Cl)s1)[C@@H]1CCCN1 [Example 11, N-(5-{[(5-Chloro-2-thienyl)carbonyl]({(5S)-2-oxo-3-[4-(3-oxomorpholin-4-yl)phenyl]-1,3-oxazolidin-5-yl}methyl)amino}-5-oxopentyl)-L-prolineamide hydrochloride]	101	101	100	99	–
N[C@@H](Cc1c[nH]cn1)C(=O)NCCCCC(=O)N(C[C@H]1CN(c2ccc(N3CCOCC3=O)cc2)C(=O)O1)C(=O)c1ccc(Cl)s1 [Example 12, N-(5-{[(5-Chloro-2-thienyl)carbonyl]({(5S)-2-oxo-3-[4-(3-oxomorpholin-4-yl)phenyl]-1,3-oxazolidin-5-yl}methyl)amino}-5-oxopentyl)-L-histidinamide hydrochloride]	100	101	99	93	> 3000
NCCCC[C@H](N)C(=O)NCCCCC(=O)N(C[C@H]1CN(c2ccc(N3CCOCC3=O)cc2)C(=O)O1)C(=O)c1ccc(Cl)s1 [Example 14, N-(5-{[(5-Chloro-2-thienyl)carbonyl]({(5S)-2-oxo-3-[4-(3-oxomorpholin-4-yl)phenyl]-1,3-oxazolidin-5-yl}methyl)amino}-5-oxopentyl)-L-lysinamide hydrochloride]	100	100	98	88	1900

The next lines start with the values.

% test substance after 4 h [F(t = 4 h) × 100/F(t = 0 h)] ([1]; buffer pH 4, 25° C.) [%]	% test substance after 24 h [F(t = 24 h) × 100/F(t = 0 h)] ([1]; buffer pH 4, 25° C.) [%]	% test substance after 4 h [F(t = 4 h) × 100/F(t = 0 h)] ([1]; buffer pH 7.4, 25° C.) [%]	% test substance after 24 h [F(t = 24 h) × 100/F(t = 0 h)] ([1]; buffer pH 7.4, 25° C.) [%]	solubility at 24 h [2] [µg/mL]	Structure (SMILES)
101	101	99	94	–	NCC(=O)OCCCCC(=O)N(C[C@H]1CN(c2ccc(N3CCOCC3=O)cc2)C(=O)O1)C(=O)c1ccc(Cl)s1 [Example 2, hydrochloride]
100	100	92	77	–	CC(C)[C@H](N)C(=O)SCCCCC(=O)N(C[C@H]1CN(c2ccc(N3CCOCC3=O)cc2)C(=O)O1)C(=O)c1ccc(Cl)s1 [Example 4, S-(5-{[(5-Chloro-2-thienyl)carbonyl]({(5S)-2-oxo-3-[4-(3-oxomorpholin-4-yl)phenyl]-1,3-oxazolidin-5-yl}methyl)amino}-5-oxopentyl)(2S)-2-amino-3-methylbutanethioate hydrochloride]
100	100	96	84	–	NCC(=O)SCCCCC(=O)N(C[C@H]1CN(c2ccc(N3CCOCC3=O)cc2)C(=O)O1)C(=O)c1ccc(Cl)s1 [Example 5, S-(5-{[(5-Chloro-2-thienyl)carbonyl]({(5S)-2-oxo-3-[4-(3-oxomorpholin-4-yl)phenyl]-1,3-oxazolidin-5-yl}methyl)amino}-5-oxopentyl)aminoethanethioate hydrochloride]
100	101	97	84	> 500	C[C@H](N)C(=O)SCCCCC(=O)N(C[C@H]1CN(c2ccc(N3CCOCC3=O)cc2)C(=O)O1)C(=O)c1ccc(Cl)s1 [Example 7, S-(5-{[(5-Chloro-2-thienyl)carbonyl]({(5S)-2-oxo-3-[4-(3-oxomorpholin-4-yl)phenyl]-1,3-oxazolidin-5-yl}methyl)amino}-5-oxopentyl)(2S)-2-aminopropanethioate hydrochloride]
